In patent US6197495A, “Methods using the staphylococcus aureus glycyl tRNA synthetase crystalline structure” (SmithKline Beecham Corporation, priority 1998, dated 2001):

Experiments:
[1] = biological target: T1, Staphylococcus aureus glycyl tRNA synthetase (GRS), SEQ ID NO:1 (Staphylococcus aureus, UniProt P99129); assay: Stopped-flow tryptophan fluorescence measurement of inhibitor binding to GRS
T1 construct: purified enzyme or crude lysate; homodimer
T1 sequence (P99129 1-463): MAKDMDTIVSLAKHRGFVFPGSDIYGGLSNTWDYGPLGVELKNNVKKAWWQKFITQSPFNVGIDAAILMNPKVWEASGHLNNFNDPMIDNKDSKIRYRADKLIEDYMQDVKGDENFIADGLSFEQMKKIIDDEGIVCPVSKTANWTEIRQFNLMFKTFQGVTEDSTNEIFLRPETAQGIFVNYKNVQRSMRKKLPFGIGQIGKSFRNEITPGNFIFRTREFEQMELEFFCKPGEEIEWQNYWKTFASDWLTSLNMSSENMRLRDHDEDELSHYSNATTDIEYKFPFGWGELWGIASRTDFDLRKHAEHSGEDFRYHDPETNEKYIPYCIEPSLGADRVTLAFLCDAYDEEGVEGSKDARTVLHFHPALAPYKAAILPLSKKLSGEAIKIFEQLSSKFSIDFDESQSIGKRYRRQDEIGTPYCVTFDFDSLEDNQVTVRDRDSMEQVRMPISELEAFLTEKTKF
From the text: (§1) Glycylsulfmoyladenosine is an analogue of the Gly-AMP reaction intermediate and inhibits GRS catalytic activity as measured by any of the techniques described in the examples below. Estimates of the potency of inhibition are obtained by performing enzyme assays in the presence of a range of inhibitor concentrations, and fitting the effect of inhibitor concentration on enzyme velocity to a four parameter logistic function that allows calculation of an IC50 (the inhibitor concentration at which GRS activity is reduced by half). […] Binding of glycylsulfamoyladenosine to GRS can also be measured directly using stopped-flow fluorescence techniques because enzyme:inhibitor binary complex has around 5% higher tryptophan fluorescence than the free enzyme. Experiments of this type yield the following elementary rate constants for inhibitor binding; kon =1.1×10^6 s^-1.M^-1, koff =2.9s ^-1 .
(1) Effects of ligand binding upon enzyme intrinsic fluorescence (e.g. of tryptophan). Binding of either natural ligands or inhibitors may result in enzyme conformational changes which alter enzyme fluorescence. Using stopped-flow fluorescence equipment, this can be used to define the microscopic rate constants that describe binding. Alternatively, steady-state fluorescence titration methods can yield the overall dissociation constant for binding in the same way that these are accessed through enzyme inhibition experiments.

[2] = biological target: T1, Staphylococcus aureus glycyl tRNA synthetase (GRS), SEQ ID NO:1; assay: Aminoacylation assay of GRS catalytic activity in the presence of a range of inhibitor concentrations; type: biochemical; settings: S. aureus GRS; four parameter logistic fit; tRNA acylation with radiolabelled glycine, 37° C.; read-out: IC50 (the inhibitor concentration at which GRS activity is reduced by half)
From the text: as §1
Assays were performed either using purified S. aureus GRS overexpressed in E. coli, or using crude cell lysate from E. coli overexpressing GRS. The latter contained around 10% of total protein as GRS. Enzyme was stored at -70° C. in 50 mM Tris-HCl buffer (pH 7.8), 10 mM MgCl2 and 10 mM B-mercaptoethanol after flash freezing in liquid N2. […]
The assay procedure was as follows. […] The filters were dried at 70° C. for 1 hour and the levels of radioactivity measured by scintillation counting (Packard Topcount). […]

Work on NCC(=O)NS(=O)(=O)OC[C@H]1O[C@@H](n2cnc3c(N)ncnc32)[C@H](O)[C@@H]1O [glycylsulfamoyladenosine, 5'-O-Glycylsulfamoyladenosine] yielded a koff [1] of 2.9 s⁻¹, a kon [1] of 1.1e+06 M⁻¹ s⁻¹ and a Kd ([1]; estimate from the ratio of koff and kon) of 2.6 µM. For the same compound, the IC50 [2] was roughly 2.4 µM.
